Experimental data as given in the supplement of paper PMC11208160.
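Also: IS621 bridge recombinase in Escherichia coli cells against a fixed T5 target plasmid.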

Assay: recombinant UMI read abundance after kanamycin selection (control-corrected) (log10(CPM+1)); higher = more efficient recombination; extreme values may be limits of the assay; sequences stand for … in AGTGCAGAGAAAATCGGCCAGTTTTCTCTGCCTGCAGTCCGCATGCCGTGGGACCCCTTGGGTTCTAACCTGTTGCCTAGATTTATGCAGCGGACTGCCTTTCTCCCAAAGTGATAAACCGG…AGGTTGGTTTCACT; site = the 11-nt donor
How it was run: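 Under IPTG (0.07 mM) plus kanamycin, or without selection, Escherichia coli carrying a UMI-tagged donor and donor-binding-loop pair library and a target plasmid for the IS621 bridge recombinase were plated in two replicates. Recombinant UMIs were PCR-amplified across the donor–target junction and sequenced. Counts were converted to CPM, averaged over replicates, scaled by control-derived factors and reported as log10(CPM+1).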
With “CTAGTATCATGGACCGGTTTTCCCGGTAATCCGTATTTGAC (site CTAGCAGCTGT)” the “recombinant UMI read abundance (log10)” value was 0. With “TGAGGACCATGGACCGGTTTTCCCGGTAATCCGTATTTGGT (site TGAGGACCTAC)” the “recombinant UMI read abundance (log10)” value was 0.00901. In the case of “CGGGAATCATGGACCGGTTTTCCCGGTAATCCGTATTTGCC (site CGGGACTCTGG)”, the “recombinant UMI read abundance (log10)” value is reported as 1.28. With “CGTAGAACATGGACCGGTTTTCCCGGTAATCCGTATTTGTT (site CGTAGAACTAA)” the “recombinant UMI read abundance (log10)” value was 0.685. With “GTGGAGGCATGGACCGGTTTTCCCGGTAATCCGTATTTGTG (site GTGGAGCCTCA)” the “recombinant UMI read abundance (log10)” value was 0.0109. For “CGGGAACCATGGACCGGTTTTCCCGGTAATCCGTATTTGAT (site CGGGAATCTAT)”, the “recombinant UMI read abundance (log10)” value was 0. For “CGGTTTACATGGACCGGTTTTCCCGGTAATCCGTATTTGCT (site CAGTTTACTAG)”, the “recombinant UMI read abundance (log10)” value was 0. With “CGTACGTCATGGACCGGTTTTCCCGGTAATCCGTATTTGTT (site TGTACGTCTAA)” the “recombinant UMI read abundance (log10)” value was 0.00974. In the case of “AAGCGCTCATGGACCGGTTTTCCCGGTAATCCGTATTTGCG (site AAGCGCTCTCG)”, the “recombinant UMI read abundance (log10)” value is reported as 2.26. For “AGCTCAGCATGGACCGGTTTTCCCGGTAATCCGTATTTGGT (site AGCTCAGCTTC)”, the “recombinant UMI read abundance (log10)” value was 0.0112. For “TACTTGACATGGACCGGTTTTCCCGGTAATCCGTATTTGCT (site CACTTGACTAG)”, the “recombinant UMI read abundance (log10)” value was 0.342. In the case of “TGTAAACCATGGACCGGTTTTCCCGGTAATCCGTATTTGAC (site TGTAGACCTGT)”, the “recombinant UMI read abundance (log10)” value is reported as 0. With “GGTAGGTCATGGACCGGTTTTCCCGGTAATCCGTATTTGTT (site GGTAGGTCTAA)” the “recombinant UMI read abundance (log10)” value was 0.00338. In the case of “TCGTGACCATGGACCGGTTTTCCCGGTAATCCGTATTTGCA (site TCGTGACCTTG)”, the “recombinant UMI read abundance (log10)” value is reported as 0. With “GAAGCAGCATGGACCGGTTTTCCCGGTAATCCGTATTTGCT (site CAAGCAGCTAG)” the “recombinant UMI read abundance (log10)” value was 1.19. For “TATCAGCCATGGACCGGTTTTCCCGGTAATCCGTATTTGTT (site TATCAGCCTAA)”, the “recombinant UMI read abundance (log10)” value was 0.0212. For “AATGTGCCATGGACCGGTTTTCCCGGTAATCCGTATTTGAC (site AATGTGACTGT)”, the “recombinant UMI read abundance (log10)” value was 0. With “CAAGCAGCATGGACCGGTTTTCCCGGTAATCCGTATTTGCG (site CAAGCAGCTGG)” the “recombinant UMI read abundance (log10)” value was 0. With “GCGAAGCCATGGACCGGTTTTCCCGGTAATCCGTATTTGGG (site GCGCAGCCTCC)” the “recombinant UMI read abundance (log10)” value was 0.011. For “CGCCTTACATGGACCGGTTTTCCCGGTAATCCGTATTTGCT (site CGCCCTACTAG)”, the “recombinant UMI read abundance (log10)” value was 0.675. With “GTAGTCCCATGGACCGGTTTTCCCGGTAATCCGTATTTGCG (site GTAGTCGCTCG)” the “recombinant UMI read abundance (log10)” value was 0.16. With “GAATGGCCATGGACCGGTTTTCCCGGTAATCCGTATTTGGA (site GAATGGCCTTC)” the “recombinant UMI read abundance (log10)” value was 0.00798. For “CAAGCAGCATGGACCGGTTTTCCCGGTAATCCGTATTTGCT (site CAAGTAGCTAG)”, the “recombinant UMI read abundance (log10)” value was 0. In the case of “TCCAAGTCATGGACCGGTTTTCCCGGTAATCCGTATTTGCC (site TCCAACTCTGG)”, the “recombinant UMI read abundance (log10)” value is reported as 0. For “TTGGCACCATGGACCGGTTTTCCCGGTAATCCGTATTTGAG (site TTGGCACCTCT)”, the “recombinant UMI read abundance (log10)” value was 0.0325. For “TCCAATTCATGGACCGGTTTTCCCGGTAATCCGTATTTGCT (site TCCAATTCTAG)”, the “recombinant UMI read abundance (log10)” value was 0. With “CCGTCGACATGGACCGGTTTTCCCGGTAATCCGTATTTGGG (site CCGTCGACTCC)” the “recombinant UMI read abundance (log10)” value was 0.0232. In the case of “CTGACTCCATGGACCGGTTTTCCCGGTAATCCGTATTTGTT (site CTGACTCCTAA)”, the “recombinant UMI read abundance (log10)” value is reported as 0.838. For “GGCGATCCATGGACCGGTTTTCCCGGTAATCCGTATTTGAA (site GGCAATCCTTT)”, the “recombinant UMI read abundance (log10)” value was 0.0192. In the case of “GTGGAGGCATGGACCGGTTTTCCCGGTAATCCGTATTTGTG (site CTGGAGGCTCA)”, the “recombinant UMI read abundance (log10)” value is reported as 0.921. In the case of “TTCGACCCATGGACCGGTTTTCCCGGTAATCCGTATTTGGC (site TTCGACCCTGC)”, the “recombinant UMI read abundance (log10)” value is reported as 0. With “CGGAATCCATGGACCGGTTTTCCCGGTAATCCGTATTTGAT (site CGGAATCCTAC)” the “recombinant UMI read abundance (log10)” value was 0.0207. In the case of “CGGGACTCATGGACCGGTTTTCCCGGTAATCCGTATTTGCC (site CGGGACTCTGG)”, the “recombinant UMI read abundance (log10)” value is reported as 3.01. With “ACTGGATCATGGACCGGTTTTCCCGGTAATCCGTATTTGCA (site ACTGGATCTTG)” the “recombinant UMI read abundance (log10)” value was 1.64. With “CATAGCCCATGGACCGGTTTTCCCGGTAATCCGTATTTGAG (site CATAGCCCTCT)” the “recombinant UMI read abundance (log10)” value was 0.0141. For “AGACACCCATGGACCGGTTTTCCCGGTAATCCGTATTTGCA (site AGACACCCTTG)”, the “recombinant UMI read abundance (log10)” value was 1.15. For “CTAGTATCATGGACCGGTTTTCCCGGTAATCCGTATTTGAC (site CTCGTATCTCT)”, the “recombinant UMI read abundance (log10)” value was 0.007. With “TCAGAGACATGGACCGGTTTTCCCGGTAATCCGTATTTGCG (site TCAGATACTCG)” the “recombinant UMI read abundance (log10)” value was 0.784.
